Results as given in patent US20060069132A1, “Azolecarboxamide herbicides” (priority 2004, published 2006).
Read-outs that look alike come from different tables or passages of the source.

Legend:
eastern black nightshade = assay: Test C pre-/postemergence herbicide test; type: in vivo, Solanum ptycanthum; conditions: for Nightshade plant response rating: Preemergence, scale 0 to 100, 0 no effect, 100 complete control
Excerpt: (§1) Seeds of plant species selected from bermudagrass (Cynodon dactylon (L.) Pers.), Surinam grass (Urochloa decumbens (Staph) R. D. Webster, previously named Brachiaria decumbens Stapf), cocklebur (Xanthium strumarium L.), corn (Zea mays L.), large crabgrass (Digitaria sanguinalis (L.) Scop.), woolly cupgrass (Eriochloa villosa (Thunb.) Kunth), giant foxtail (Setaria faberi Herrm.), goosegrass (Eleusine indica (L.) Gaertn.), johnsongrass (Sorghum halepense (L.) Pers.), kochia (Kochia scoparia (L.) Schrad.), lambsquarters (Chenopodium album L.), morningglory (Ipomoea coccinea L.), eastern black nightshade (Solanum ptycanthum Dunal), yellow nutsedge (Cyperus esculentus L.), pigweed (Amaranthus retroflexus L.), common ragweed (Ambrosia elatior L.), soybean (Glycine max (L.) Merr.), common (oilseed) sunflower (Helianthus annuus L.) and velvetleaf (Abutilon theophrasti Medik.) were planted and treated preemergence with test chemicals formulated in a non-phytotoxic solvent mixture which included a surfactant.
(§2) At the same time, plants selected from these crop and weed species and also winter barley (Hordeum vulgare L.), blackgrass (Alopecurus myosuroides Huds.), canarygrass (Phalaris minor Retz.), chickweed (Stellaria media (L.) Vill.), downy bromegrass (Bromus tectorum L.), green foxtail (Setaria viridis (L.) Beauv.), Italian ryegrass (Lolium multiflorum Lam.), wheat (Triticum aestivum L.), wild oat (Avenafatua L.) and windgrass (Apera spica-venti (L.) Beauv.) were treated with postemergence applications of some of the test chemicals formulated in the same manner. Plants ranged in height from 2 to 18 cm (1- to 4-leaf stage) for postemergence treatments. Plant species in the flooded paddy test consisted of rice (Oryza sativa), smallflower umbrella sedge (Cyperus difformis L.), ducksalad (Heteranthera limosa (Sw.) Willd.) and barnyardgrass (Echinochloa crus-galli (L.) Beauv.) grown to the 2-leaf stage for testing. Treated plants and controls were maintained in a greenhouse for 12 to 14 days, after which time all species were compared to controls and visually evaluated. Plant response ratings, summarized in Table C, are based on a scale of 0 to 100 where 0 is no effect and 100 is complete control. A dash (-) response means no test result.

johnsongrass = assay: Test C pre-/postemergence herbicide test; type: in vivo, Sorghum halepense; conditions: for Johnsongrass plant response rating: Preemergence, scale 0 to 100, 0 no effect, 100 complete control
Excerpt: as §1, §2

barnyardgrass = assay: Test C flooded paddy test; type: in vivo, Echinochloa crus-galli; conditions: for pest or weed control at 62 g/ha / pest or weed control at 125 g/ha / pest or weed control at 250 g/ha / pest or weed control at 500 g/ha: Echinochloa crus-galli; for pest or weed control at 62 g/ha / pest or weed control at 125 g/ha / pest or weed control at 250 g/ha: read-out: Barnyardgrass plant response rating; for pest or weed control at 500 g/ha / Plant response rating, Barnyardgrass: 500 g ai/ha, visual rating after 12 to 14 days; for pest or weed control at 500 g/ha: read-out: Plant response rating, Barnyardgrass
Method in brief: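 Postemergence sprays were applied to plants 2 to 18 cm tall (1- to 4-leaf stage); in the flooded paddy test, barnyardgrass was grown to the 2-leaf stage. After 12 to 14 days in a greenhouse, injury was visually rated against untreated controls on a 0–100 scale (100 = complete control).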

[1] = 62 g ai/ha, preemergence, scale 0 to 100
[2] = 125 g ai/ha, scale 0 (no effect) to 100 (complete control), visual, 12 to 14 days, preemergence
[3] = 250 g ai/ha, scale 0-100, preemergence
[4] = 62 g ai/ha, scale 0 to 100 (0 no effect, 100 complete control)
[5] = 125 g ai/ha, scale of 0 to 100, 0 is no effect, 100 is complete control
[6] = 250 g ai/ha, scale of 0 to 100, 0 is no effect, 100 is complete control
[7] = scale 0 to 100 (0 no effect, 100 complete control)
[8] = pre-emergence, 125 g ai/ha, scale 0 (no effect) to 100 (complete control), visual, 12 to 14 days, read-out: Plant response rating, Nightshade
[9] = Sorghum halepense, pre-emergence, 125 g ai/ha, scale 0 (no effect) to 100 (complete control), visual, 12 to 14 days, read-out: Plant response rating, Johnsongrass
[10] = 125 g ai/ha, scale 0 to 100 (0 no effect, 100 complete control)
[11] = 500 g ai/ha, scale 0 to 100 (0 no effect, 100 complete control), visual, 12 to 14 days, preemergence

Compound	Plant response rating, Nightshade (eastern black nightshade; [1])	Plant response rating, Nightshade (eastern black nightshade; [2])	Plant response rating, Nightshade (eastern black nightshade; [3])	Nightshade plant response rating (eastern black nightshade; 500 g ai/ha)	Plant response rating, Johnsongrass (johnsongrass; [1])	Plant response rating, Johnsongrass (johnsongrass; [2])	Plant response rating, Johnsongrass (johnsongrass; [3])	Johnsongrass plant response rating (johnsongrass; 500 g ai/ha)	Barnyardgrass plant response rating (barnyardgrass; [4])	Barnyardgrass plant response rating (barnyardgrass; [10])	Barnyardgrass plant response rating (barnyardgrass; [6])	Plant response rating, Barnyardgrass (barnyardgrass; [7])	other results
CC(=NO)c1cccc(NC(=O)c2sc(C(C)(C)C)nc2C)c1 [Compound 195]	0	0	0	0	0	0	0	0					
CCn1nc(C(C)(C)C)cc1C(=O)Nc1cccc2c1CN(C)C2=O [Compound 55, N-(2,3-dihydro-2-methyl-1-oxo-1H-isoindol-4-yl)-3-(1,1-dimethylethyl)-1-ethyl-1H-pyrazole-5-carboxamide]				95				100					pest or weed control at 62 g/ha (barnyardgrass; [4]): 0%; pest or weed control at 125 g/ha (barnyardgrass; [5]): 0%; pest or weed control at 250 g/ha (barnyardgrass; [6]): 25%; pest or weed control at 500 g/ha (barnyardgrass; [7]): 75%; Plant response rating (0 = no effect, 100 = complete control), Nightshade (eastern black nightshade; 62 g ai/ha, preemergence): 15; pest or weed control at 125 g/ha (eastern black nightshade; [8]): 60%; pest or weed control at 250 g/ha (eastern black nightshade; pre-emergence, 250 g ai/ha, scale 0 to 100 (0 no effect, 100 complete control), visual, 12 to 14 days, read-out: Plant response rating, Nightshade): 90%; Plant response rating (0 = no effect, 100 = complete control), Johnsongrass (johnsongrass; 62 g ai/ha, preemergence): 0; pest or weed control at 125 g/ha (johnsongrass; [9]): 75%; pest or weed control at 250 g/ha (johnsongrass; Sorghum halepense, pre-emergence, 250 g ai/ha, scale 0 to 100 (0 no effect, 100 complete control), visual, 12 to 14 days, read-out: Plant response rating, Johnsongrass): 95%
CCc1nn(C(C)(C)C)nc1C(=S)Nc1cccc(C(=S)N(C)C)c1 [Compound 396]	95		100		95		100		65	75	75	80	Plant response rating (0 = no effect, 100 = complete control), Nightshade (eastern black nightshade; 125 g ai/ha, preemergence): 100; Plant response rating, Nightshade (eastern black nightshade; [11]): 100; Plant response rating (0 = no effect, 100 = complete control), Johnsongrass (johnsongrass; 125 g ai/ha, preemergence): 100; Plant response rating, Johnsongrass (johnsongrass; [11]): 100
C=CCN(C)C(=O)c1cccc(NC(=O)c2cc(C(C)(C)C)nn2CC)c1 [Compound 285]									10	25	55	75	
CCNC(=O)c1cccc(NC(=O)c2sc(C(C)(C)C)nc2CC)c1 [Compound 210]	80	100	100		5	20	50		50	70	85	85	Plant response rating, Nightshade (eastern black nightshade; [11]): 100; Plant response rating, Johnsongrass (johnsongrass; [11]): 70
C=Cn1nc(C(C)(C)C)cc1C(=O)Nc1cccc(C(C)=O)c1 [Compound 127]									20		30	55	Barnyardgrass plant response rating (barnyardgrass; [5]): 30
CCc1nn(C(C)(C)C)cc1C(=O)Nc1cccc(C(=O)N(CC)CC)c1 [Compound 182, N-[3-[(diethylamino)carbonyl]phenyl]-1-(1,1-dimethylethyl)-3-ethyl-1H-pyrazole-4-carboxamide]				95				75					pest or weed control at 62 g/ha (eastern black nightshade; pre-emergence, 62 g ai/ha, preemergence, scale 0 to 100, read-out: Plant response rating, Nightshade): 70%; pest or weed control at 125 g/ha (eastern black nightshade; [8]): 80%; pest or weed control at 62 g/ha (johnsongrass; Sorghum halepense, pre-emergence, 62 g ai/ha, preemergence, scale 0 to 100, read-out: Plant response rating, Johnsongrass): 0%; pest or weed control at 125 g/ha (johnsongrass; [9]): 35%
C=CCNC(=O)c1cccc(NC(=O)c2sc(C(C)(C)C)nc2CC)c1 [Compound 207]	60	75	100	100	0	10	40	50	45	65	75	85	
CCOC(=O)c1cccc(NC(=O)c2cc(C(C)(C)C)nn2C)n1 [Compound 313]									0	0			Barnyardgrass plant response rating (barnyardgrass; 16 g ai/ha, scale 0 to 100): 0; Barnyardgrass plant response rating (barnyardgrass; 31 g ai/ha, scale 0 to 100): 0
CCNC(=O)c1cccc(NC(=O)c2sc(C(C)(C)C)nc2CC)n1 [Compound 213]	100	100	100		0	55	60						Plant response rating, Nightshade (eastern black nightshade; [11]): 100; Plant response rating, Johnsongrass (johnsongrass; [11]): 80
CCn1nc(C(C)(C)C)c(F)c1C(=O)Nc1cc(C(=O)N(C)C)ccc1F [Compound 276, N-[5-[(dimethylamino)carbonyl]-2-fluorophenyl]-3-(1,1-dimethylethyl)-1-ethyl-4-fluoro-1H-pyrazole-5-carboxamide]													pest or weed control at 62 g/ha (barnyardgrass; [4]): 0%; pest or weed control at 125 g/ha (barnyardgrass; [10]): 15%; pest or weed control at 250 g/ha (barnyardgrass; [6]): 50%; pest or weed control at 500 g/ha (barnyardgrass; [7]): 70%
CCNC(=O)c1cccc(NC(=O)c2sc(C(C)(C)C)nc2C)c1 [Compound 198]	90	95	100	100	0	30	60	95					
